This is an account of results in patent publication US8497266B2, “3-(3-pyrimidin-2-ylbenzyl)-1,2,4-triazolo[4,3-b]pyridazine derivatives as MET kinase inhibitors” (Merck Patent GmbH, priority 2008, dated 2013).

For experiment [1], the target named is T1, Met kinase (Homo sapiens, UniProt P08581). As to the kind of experiment: Met kinase inhibition, flashplate method (enzyme). The experiment is classed as biochemical. Set-up: 6His (N); purchased Upstate 14-526; host or cells: Sf21 insect cells (S. frugiperda), baculovirus. From the text: According to the manufacturer's data (Met, active, Upstate, catalogue No. 14-526), Met kinase is expressed for the purposes of protein production in insect cells (Sf21; S. frugiperda) and subsequent affinity-chromatographic purification as “N-terminal 6His-tagged” recombinant human protein in a baculovirus expression vector.
The test plates used are 96-well Flashplate® microtitre plates from Perkin Elmer (Cat. No. SMP200). The components of the kinase reaction described below are pipetted into the assay plate. The Met kinase and the substrate poly Ala-Glu-Lys-Tyr, (pAGLT, 6:2:5:1), are incubated for 3 hrs at room temperature with radioactively labelled ^33P-ATP in the presence and absence of test substances in a total volume of 100 μl. The reaction is terminated using 150 μl of a 60 mM EDTA solution. After incubation for a further 30 min at room temperature, the supernatants are filtered off with suction, and the wells are washed three times with 200 μl of 0.9% NaCl solution each time. The measurement of the bound radioactivity is carried out by means of a scintillation measuring instrument (Topcount NXT, Perkin-Elmer).
The full value used is the inhibitor-free kinase reaction. This should be approximately in the range 6000-9000 cpm. The pharmacological zero value used is staurosporin in a final concentration of 0.1 mM. The inhibitory values (IC50) are determined using the RS1_MTS program.
Kinase reaction conditions per well: • 30 μl of assay buffer • 10 μl of substance to be tested in assay buffer with 10% of DMSO • 10 μl of ATP (final concentration 1 μM cold, 0.35 μCi of ^33P-ATP) • 50 μl of Met kinase/substrate mixture in assay buffer; • (10 ng of enzyme/well, 50 ng of pAGLT/well) • Solutions used: • Assay buffer: • 50 mM HEPES • 3 mM magnesium chloride • 3 μM sodium orthovanadate • 3 mM manganese(II) chloride • 1 mM dithiothreitol (DTT) • pH=7.5 (to be set using sodium hydroxide) • Stop solution: • 60 mM Titriplex III (EDTA) • ^33P-ATP: Perkin-Elmer; • Met kinase: Upstate, Cat. No. 14-526, Stock 1 μg/10 μl; spec. activity 954 U/mg; • Poly-Ala-Glu-Lys-Tyr, 6:2:5:1: Sigma Cat. No. P1152 In-Vivo Tests
Target sequence in this assay (P08581 956-1390 limits assumed): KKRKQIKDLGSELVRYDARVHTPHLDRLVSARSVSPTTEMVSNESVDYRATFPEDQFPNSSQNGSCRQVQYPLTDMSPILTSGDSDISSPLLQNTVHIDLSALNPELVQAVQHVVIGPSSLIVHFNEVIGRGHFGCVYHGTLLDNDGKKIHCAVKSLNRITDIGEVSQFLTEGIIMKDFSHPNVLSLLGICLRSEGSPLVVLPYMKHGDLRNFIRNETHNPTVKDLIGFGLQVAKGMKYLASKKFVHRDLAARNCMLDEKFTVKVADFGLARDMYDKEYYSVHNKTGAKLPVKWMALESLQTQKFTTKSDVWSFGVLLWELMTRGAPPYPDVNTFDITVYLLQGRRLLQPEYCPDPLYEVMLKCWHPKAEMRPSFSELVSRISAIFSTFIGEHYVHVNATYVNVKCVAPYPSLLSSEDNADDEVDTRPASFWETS

Experiment [2] has as its target T1, Met kinase. The experiment is described as follows: Met kinase inhibition (cell). It counts as cell-based.
Target sequence in this assay (P08581 25-1390): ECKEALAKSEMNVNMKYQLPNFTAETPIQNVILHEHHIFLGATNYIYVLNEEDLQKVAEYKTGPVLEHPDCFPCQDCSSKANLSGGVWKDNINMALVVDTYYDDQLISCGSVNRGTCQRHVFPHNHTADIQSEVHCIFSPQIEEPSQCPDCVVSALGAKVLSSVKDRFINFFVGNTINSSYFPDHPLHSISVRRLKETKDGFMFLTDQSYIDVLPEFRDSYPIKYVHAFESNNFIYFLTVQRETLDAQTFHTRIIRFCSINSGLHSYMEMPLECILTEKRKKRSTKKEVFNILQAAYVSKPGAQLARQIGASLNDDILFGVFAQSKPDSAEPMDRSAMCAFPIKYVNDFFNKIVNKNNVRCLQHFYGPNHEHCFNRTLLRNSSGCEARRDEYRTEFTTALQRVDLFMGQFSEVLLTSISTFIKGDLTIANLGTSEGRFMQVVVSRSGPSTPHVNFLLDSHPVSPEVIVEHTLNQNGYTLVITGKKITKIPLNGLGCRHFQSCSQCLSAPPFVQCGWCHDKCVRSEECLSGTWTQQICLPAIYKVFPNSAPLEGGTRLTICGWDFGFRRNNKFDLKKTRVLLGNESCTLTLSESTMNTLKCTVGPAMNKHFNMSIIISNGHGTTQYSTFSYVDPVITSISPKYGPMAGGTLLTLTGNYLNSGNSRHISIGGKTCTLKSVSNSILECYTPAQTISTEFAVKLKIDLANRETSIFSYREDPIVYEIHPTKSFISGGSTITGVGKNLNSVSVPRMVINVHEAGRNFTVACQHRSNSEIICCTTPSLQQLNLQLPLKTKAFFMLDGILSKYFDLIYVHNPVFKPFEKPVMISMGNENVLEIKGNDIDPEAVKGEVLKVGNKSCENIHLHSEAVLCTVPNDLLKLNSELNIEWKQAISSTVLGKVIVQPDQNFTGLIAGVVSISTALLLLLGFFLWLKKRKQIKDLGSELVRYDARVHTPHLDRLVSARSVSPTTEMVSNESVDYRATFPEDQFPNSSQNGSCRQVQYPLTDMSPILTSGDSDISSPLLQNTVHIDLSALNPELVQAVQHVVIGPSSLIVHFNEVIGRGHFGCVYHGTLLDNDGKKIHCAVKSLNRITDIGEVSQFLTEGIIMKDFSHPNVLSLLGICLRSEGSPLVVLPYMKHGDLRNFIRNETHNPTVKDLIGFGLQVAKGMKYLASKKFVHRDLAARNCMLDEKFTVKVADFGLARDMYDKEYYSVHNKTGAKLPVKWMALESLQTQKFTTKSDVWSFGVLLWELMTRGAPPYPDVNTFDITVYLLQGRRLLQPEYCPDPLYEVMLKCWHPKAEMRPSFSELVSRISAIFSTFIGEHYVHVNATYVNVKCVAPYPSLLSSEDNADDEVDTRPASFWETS

Consider `Cn1cc(-c2ccc3nnc(C(F)(F)c4cccc(-c5ncc(OCCN6CCOCC6)cn5)c4)n3n2)cn1` [Compound A12, 3-(difluoro-{3-[5-(2-morpholin-4-ylethoxy)pyrimidin-2-yl]-phenyl}methyl)-6-(1-methyl-1H-pyrazol-4-yl)-1,2,4-triazolo[4,3-b]pyridazine], for which the concentration for half-maximal inhibition (IC50) at Met kinase [1] and on Met kinase [2] was 1 to 100 nM each time.
On to `CN1CCN(c2cnc(-c3cccc(C(F)(F)c4nnc5ccc(-c6cnn(C)c6)nn45)c3)nc2)CC1` [Compound A16], for which the IC50 on Met kinase [1] and against Met kinase [2] was 1 to 100 nM in each case.
Regarding `N#Cc1cccc(-c2ccc3nnc(C(F)(F)c4cccc(-c5ncc(N6CCNCC6)cn5)c4)n3n2)c1` [Compound A24], the concentration for half-maximal inhibition (IC50) at Met kinase [1] and against Met kinase [2] was 1 to 100 nM each time.
In the case of `Cc1ccc2nnc(C(F)(F)c3cccc(-c4ncc(OCC5CCN(C)CC5)cn4)c3)n2n1` [Compound A41, 3-(difluoro-{3-[5-(1-methylpiperidin-4-ylmethoxy)pyrimidin-2-yl]phenyl}methyl)-6-methyl-1,2,4-triazolo[4,3-b]pyridazine], the IC50 against Met kinase [1] and against Met kinase [2] was 1 to 100 nM in each case.
For `Cc1ccc2nnc(Cc3cccc(-c4ncc(-c5cnn(CCN6CCCC6)c5)cn4)c3)n2n1` [Compound A9], the IC50 against Met kinase [1] and at Met kinase [2] was 1 to 100 nM in each case.
Regarding `Cn1cc(-c2ccc3nnc(C(F)(F)c4cccc(-c5ncc(-c6cnn(CCN7CCCC7)c6)cn5)c4)n3n2)cn1` [Compound A7], the IC50 against Met kinase [1] and against Met kinase [2] was 1 to 100 nM each time.
As for `Cc1ccc2nnc(C(F)(F)c3cccc(-c4ncc(Br)cn4)c3)n2n1` [Compound A27, 3-{[3-(5-bromopyrimidin-2-yl)phenyl]difluoromethyl}-6-methyl-1,2,4-triazolo[4,3-b]pyridazine], the IC50 against Met kinase [1] and on Met kinase [2] was 1 to 100 nM in each case.
As for `Cc1ccc2nnc(Cc3cccc(-c4ncc(Br)cn4)c3)n2n1` [Compound A6], the half-maximal inhibitory concentration (IC50) on Met kinase [1] lay within 1 to 100 nM; on Met kinase [2] it was 100 to 10000 nM.
In the case of `CC(c1cccc(-c2ncc(-c3cnn(CCN4CCCC4)c3)cn2)c1)c1nnc2ccc(-c3cnn(C)c3)nn12` (stereo not drawn) [Compound A22], the concentration for half-maximal inhibition (IC50) on Met kinase [1] and against Met kinase [2] was 1 to 100 nM each time.
Consider `N#Cc1cccc(-c2ccc3nnc(Cc4cccc(-c5ncc(Br)cn5)c4)n3n2)c1` [Compound A5, 3-{3-[3-(5-bromopyrimidin-2-yl)benzyl]-1,2,4-triazolo[4,3-b]-pyridazin-6-yl}benzonitrile], for which the IC50 on Met kinase [1] and on Met kinase [2] was 1 to 100 nM throughout.
Regarding `Cc1ccc2nnc(Cc3cccc(-c4ncc(N5CCN(C)CC5)cn4)c3)n2n1` [Compound A17], the half-inhibitory concentration (IC50) on Met kinase [1] and at Met kinase [2] was 1 to 100 nM throughout.
`N#Cc1cccc(-c2ccc3nnc(C(F)(F)c4cccc(-c5ncc(Br)cn5)c4)n3n2)c1` [Compound A3a, 3-(3-{[3-(5-bromopyrimidin-2-yl)phenyl]difluoromethyl}-1,2,4-triazolo[4,3-b]-pyridazin-6-yl)benzonitrile]: the IC50 against Met kinase [1] and on Met kinase [2] was 1 to 100 nM throughout.
Take `N#Cc1cccc(-c2ccc3nnc(C(F)(F)c4cccc(-c5ncc(-c6cnn(CCN7CCCC7)c6)cn5)c4)n3n2)c1` [Compound A19]: the IC50 against Met kinase [1] and on Met kinase [2] was 1 to 100 nM in each case.
Regarding `CN1CCN(c2cnc(-c3cccc(C(F)(F)c4nnc5ccc(-c6cccc(C#N)c6)nn45)c3)nc2)CC1` [Compound A23], the concentration for half-maximal inhibition (IC50) on Met kinase [1] and against Met kinase [2] was 1 to 100 nM in each case.
Consider `Cn1cc(-c2ccc3nnc(C(F)(F)c4cccc(-c5ncc(Br)cn5)c4)n3n2)cn1` [Compound A3, 3-{[3-(5-bromopyrimidin-2-yl)phenyl]difluoromethyl}-6-(1-methyl-1H-pyrazol-4-yl)-1,2,4-triazolo[4,3-b]pyridazine], for which the IC50 against Met kinase [1] and against Met kinase [2] was 1 to 100 nM throughout.
